# Laboratory results from US20100041089A1, “IMPROVED METHOD FOR DETECTING CHEMICAL […]” (priority 2006, published 2010).
# Tested on: yeast genes (expressed mRNA)
# Test: DNA chip measurement of expressed mRNA of yeast genes after culture with a toxic chemical substance
# Type: cell-based, Saccharomyces cerevisiae S288C
# Settings: for level of expressed mRNA in the presence of chemical substance / level in the absence of chemical substance: cultured two hours with the chemical substance; for The level of expressed mRNA in the presence of chemical substance/The level of expressed mRNA in the absence of chemical substance: cultured two hours with substance
# Method: Yeast (Saccharomyces cerevisiae S288C (a SUC2mal mel gap2 CUP1)) were cultured at 25° C. on YPD medium (yeast extract 1%, polypeptone 2%, glucose 2%). One of toxic chemical substances was added to the cell at logarithmic growth phase, and the cell was further cultured for two hours. Cell was cultured without any chemical substance in the same condition, and was used as a control. Concentrations of the chemical substances were defined to inhibit the growth of the yeast but not lead to death.
# After the completion of cultivation, the culture was centrifuged to collect the cells. To the cells, sodium acetate buffer (50 mM sodium acetate, 10 mM EDTA, 1% SDS) was added, and the mixture was shaken at 65° C. for five minutes, followed by returning to room temperature, and obtaining the supernatant, which procedure was repeated two times. To the supernatant, ½ amount of a solution of phenol/chloroform (1:1) was added, and the mixture was centrifuged to give a supernatant, an equal amount of chloroform was added, and the mixture was centrifuged to give a supernatant. To the supernatant, an equal amount of isopropanol containing 0.3 M sodium acetate was added, and the mixture was allowed to stand at room temperature for 30 minutes, after which the mixture was centrifuged to give sediment of the whole RNAs. Seventy % ethanol was added to the sediment, and the mixture was again centrifuged to give sediment, which was then dried and dissolved in water. mRNA was isolated from the whole RNAs as followings. In view of the fact that a poly A chain is attached to the 3′ terminus of mRNA, a polynucleotide having a poly T structure which was immobilized on the surface of latex beads was used to trap the mRNA, and then the mRNA was washed and eluted with spine column (Oligotex-dT30<Super>mRNA Purification Kit, Takara). Reverse transcription of the mRNA was conducted with a reverse transcriptase (Super Script II Reverse Transcriptase; catalogue No. 18064-014, GibcoBRL) using fluorescence-labeled nucleotides to give cDNAs that were introduced with Cy3-dUTP or Cy5-dUTP during the reverse transcription.
# The labeled cDNAs were dissolved in TE buffer (10 mM Tris-HCl/1 mM EDTA, pH 8.0), and the solution was dropped on the DNA chip containing the whole genes of yeast (DNA Chip Research Inc. Japan) so that the cDNAs were hybridized on the DNA chip at 65° C. for over 12 hours. The fluoresces intensity of the DNA chip was read with a scanner, and the ratio relative to the fluorescence intensity resulting from the absence of chemical substance was estimated as the following, which is shown in Tables 1 to 9.
# In the Tables, “Intensity” indicated in the rightmost column is a value of the level of expressed mRNA of each gene in control cells as divided by the average level of the expressions of the whole genes. A gene of which mRNA level is lower in control, and is higher in cases of addition of chemical substance, is especially useful in the detection of toxic substances.
# Here, when a ratio of an amount of mRNA expressed in the presence of the chemical substance to an amount of mRNA expressed in the absence of the chemical substance is two or more, then it is considered significant.
compound,measurement,setting,value
"CCCCCCCCCCCCc1ccc(S(=O)(=O)[O-])cc1.[Na+] [(17), Sodium dodecylbenzosulfonate]",level of expressed mRNA in the presence of chemical substance / level in the absence of chemical substance,yeast gene YDR128W,0.9
same,level of expressed mRNA in the presence of chemical substance / level in the absence of chemical substance,yeast gene YDR133C,0.6
same,level of expressed mRNA in the presence of chemical substance / level in the absence of chemical substance,yeast gene YDR250C,0.9
same,level of expressed mRNA in the presence of chemical substance / level in the absence of chemical substance,yeast gene YDR278C,0.7
same,level of expressed mRNA in the presence of chemical substance / level in the absence of chemical substance,yeast gene YDR281C,1.5
same,The level of expressed mRNA in the presence of chemical substance/The level of expressed mRNA in the absence of chemical substance,yeast gene YDR330W,1.5
same,level of expressed mRNA in the presence of chemical substance / level in the absence of chemical substance,yeast gene YDR366C,1.2
same,The level of expressed mRNA in the presence of chemical substance/The level of expressed mRNA in the absence of chemical substance,yeast gene YDR411C,1.5
same,The level of expressed mRNA in the presence of chemical substance/The level of expressed mRNA in the absence of chemical substance,yeast gene YDR511W,1.3
same,The level of expressed mRNA in the presence of chemical substance/The level of expressed mRNA in the absence of chemical substance,yeast gene YDR545W,0.9
same,The level of expressed mRNA in the presence of chemical substance/The level of expressed mRNA in the absence of chemical substance,yeast gene YEL001C,0.7
same,The level of expressed mRNA in the presence of chemical substance/The level of expressed mRNA in the absence of chemical substance,yeast gene YER004W,1.4
same,The level of expressed mRNA in the presence of chemical substance/The level of expressed mRNA in the absence of chemical substance,yeast gene YER035W,2.2
same,The level of expressed mRNA in the presence of chemical substance/The level of expressed mRNA in the absence of chemical substance,yeast gene YER079W,1.0
same,The level of expressed mRNA in the presence of chemical substance/The level of expressed mRNA in the absence of chemical substance,yeast gene YER106W,0.8
same,The level of expressed mRNA in the presence of chemical substance/The level of expressed mRNA in the absence of chemical substance,yeast gene YER158C,1.6
same,The level of expressed mRNA in the presence of chemical substance/The level of expressed mRNA in the absence of chemical substance,yeast gene YER163C,1.2
same,The level of expressed mRNA in the presence of chemical substance/The level of expressed mRNA in the absence of chemical substance,yeast gene YER175C,0.9
same,The level of expressed mRNA in the presence of chemical substance/The level of expressed mRNA in the absence of chemical substance,yeast gene YFL006W,1.0
same,The level of expressed mRNA in the presence of chemical substance/The level of expressed mRNA in the absence of chemical substance,yeast gene YFL010C,1.9
same,The level of expressed mRNA in the presence of chemical substance/The level of expressed mRNA in the absence of chemical substance,yeast gene YFL024C,0.9
same,The level of expressed mRNA in the presence of chemical substance/The level of expressed mRNA in the absence of chemical substance,yeast gene YFL032W,1.7
same,level of expressed mRNA in the presence of chemical substance / level in the absence of chemical substance,yeast gene YFR026C,1.1
same,The level of expressed mRNA in the presence of chemical substance/The level of expressed mRNA in the absence of chemical substance,yeast gene YGL037C,1.3
same,The level of expressed mRNA in the presence of chemical substance/The level of expressed mRNA in the absence of chemical substance,yeast gene YGL047W,1.1
same,The level of expressed mRNA in the presence of chemical substance/The level of expressed mRNA in the absence of chemical substance,yeast gene YGL053W,2.2
same,level of expressed mRNA in the presence of chemical substance / level in the absence of chemical substance,yeast gene YGL088W,0.5
same,The level of expressed mRNA in the presence of chemical substance/The level of expressed mRNA in the absence of chemical substance,yeast gene YGL121C,2.7
same,The level of expressed mRNA in the presence of chemical substance/The level of expressed mRNA in the absence of chemical substance,yeast gene YGL199C,1.2
same,level of expressed mRNA in the presence of chemical substance / level in the absence of chemical substance,yeast gene YGR038W,1.1
same,The level of expressed mRNA in the presence of chemical substance/The level of expressed mRNA in the absence of chemical substance,yeast gene YGR101W,1.0
same,The level of expressed mRNA in the presence of chemical substance/The level of expressed mRNA in the absence of chemical substance,yeast gene YGR110W,0.9
same,The level of expressed mRNA in the presence of chemical substance/The level of expressed mRNA in the absence of chemical substance,yeast gene YGR130C,1.3
same,level of expressed mRNA in the presence of chemical substance / level in the absence of chemical substance,yeast gene YGR139W,1.0
same,The level of expressed mRNA in the presence of chemical substance/The level of expressed mRNA in the absence of chemical substance,yeast gene YGR154C,1.0
same,The level of expressed mRNA in the presence of chemical substance/The level of expressed mRNA in the absence of chemical substance,yeast gene YGR221C,1.3
same,level of expressed mRNA in the presence of chemical substance / level in the absence of chemical substance,yeast gene YGR243W,2.1
same,level of expressed mRNA in the presence of chemical substance / level in the absence of chemical substance,yeast gene YGR293C,0.8
same,level of expressed mRNA in the presence of chemical substance / level in the absence of chemical substance,yeast gene YHL006C,1.1
same,level of expressed mRNA in the presence of chemical substance / level in the absence of chemical substance,yeast gene YHR095W,0.8
same,level of expressed mRNA in the presence of chemical substance / level in the absence of chemical substance,yeast gene YHR105W,1.0
same,The level of expressed mRNA in the presence of chemical substance/The level of expressed mRNA in the absence of chemical substance,yeast gene YHR138C,5.0
same,level of expressed mRNA in the presence of chemical substance / level in the absence of chemical substance,yeast gene YHR181W,0.9
same,The level of expressed mRNA in the presence of chemical substance/The level of expressed mRNA in the absence of chemical substance,yeast gene YHR199C,1.1
same,The level of expressed mRNA in the presence of chemical substance/The level of expressed mRNA in the absence of chemical substance,yeast gene YIL023C,1.2
same,The level of expressed mRNA in the presence of chemical substance/The level of expressed mRNA in the absence of chemical substance,yeast gene YIL041W,0.8
same,The level of expressed mRNA in the presence of chemical substance/The level of expressed mRNA in the absence of chemical substance,yeast gene YIL087C,1.7
same,level of expressed mRNA in the presence of chemical substance / level in the absence of chemical substance,yeast gene YIL127C,0.7
same,level of expressed mRNA in the presence of chemical substance / level in the absence of chemical substance,yeast gene YJL017W,1.0
same,level of expressed mRNA in the presence of chemical substance / level in the absence of chemical substance,yeast gene YJL037W,1.3
same,The level of expressed mRNA in the presence of chemical substance/The level of expressed mRNA in the absence of chemical substance,yeast gene YJL057C,1.4
same,The level of expressed mRNA in the presence of chemical substance/The level of expressed mRNA in the absence of chemical substance,yeast gene YJL066C,1.4
same,The level of expressed mRNA in the presence of chemical substance/The level of expressed mRNA in the absence of chemical substance,yeast gene YJL082W,0.6
